The source made the active and inactive calls.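 The calls were made as follows: active = EC50 no more than a set limit of log units above the highest dose; inactive = the rest.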

The test deals with S. pyogenes SKKanGAS, kanamycin survival, BacTiterGlo, 6 h. Kind of test: S. pyogenes SKKanGAS kanamycin growth inhibitors – SKKanGAS strain, luminescence, dose confirmation, streptokinase promoter inhibitor project, dose response (AID 1902).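 Also: lower survival reflects blocked streptokinase promoter driving kanamycin resistance gene.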
For the compound `CCC1=NN2C(=N)/C(=C\c3cccn3-c3ccc(C)c(C)c3)C(=O)N=C2S1`, the EC50 is 3.91 µM.

In the case of `Nc1nonc1C(=O)NCCN=Cc1cc(Cc2ccccc2)cc(Br)c1O`, the EC50 is 5 µM.

As for `CC(C)c1ccc2c(c1)C1(NN=C(c3ccccc3)S1)C(=O)N2` (stereo not drawn), the EC50 is below 0.06 µM.

On to `O=C(Nc1ccc(F)cc1)N1CCCCCC1`, for which the EC50 was > 15 µM (inactive).

As to `CC(C)(C)C(=O)N1N=C(c2ccc(NS(C)(=O)=O)cc2)CC1c1cccs1` (stereo not drawn), the EC50 is 7.49 µM.

Take `Cc1noc(C)c1-c1nnc(-c2ccc(OC(F)(F)F)cc2)o1`: the EC50 is > 15 µM (inactive).

Take `CCOc1ccc(/C=N/Nc2cc(N3CCOCC3)nc(C)n2)c(O)c1`: the EC50 was 8.48 µM.

For `O=C(CNc1cccc2ccccc12)N/N=C/c1ccc[nH]1`, the EC50 is > 15 µM (inactive).

In the case of `O=c1/c(=C\c2cccc(O)c2)sc2nc(-c3ccccc3)c(-c3ccccc3)n12`, the EC50 was 7.63 µM.

Turning to `Cc1ccc(O)c(NC(=S)NC(=O)c2ccc(-c3ccc(Cl)cc3)o2)c1`, the 50% effective concentration (EC50) is 0.221 µM.

As for `CC(C)=CCC12Oc3cc(O)ccc3C1(O)Oc1cc3c(c(O)c1C2=O)C=CC(C)(C)O3` (stereo not drawn), the EC50 is 2.4 µM.

As for `Cc1nn(-c2ccc(Cl)cc2)c(Cl)c1/C=N/NC(=O)c1ccc(NS(=O)(=O)c2cccs2)cc1`, the EC50 is 2.06 µM.

Turning to `CCc1ccc(N(CC(=O)NC2CC2)S(=O)(=O)c2ccc(C)cc2)cc1`, the EC50 was > 15 µM (inactive).

As for `NC(=S)N=Nc1ccc(NN=C(N)N)cc1`, the EC50 is below 0.06 µM.

Turning to `O=C(Nc1nnc(C2=COCCO2)o1)c1cccc(F)c1`, the EC50 was 2.37 µM.

Regarding `C=CCc1cc(/C=C2/NC(=O)N(CC)C2=O)cc(OCC)c1OCc1ccc(C(=O)O)cc1`, the EC50 was 11.9 µM.

Turning to `Cc1cccc(C(=O)NCC(=O)N2CCOCC2)c1`, the EC50 is > 15 µM (inactive).

Consider `Cc1ccc(-c2cc3nc(-c4ccc(Br)cc4)cc(N)n3n2)cc1`, for which the EC50 is 0.561 µM.

As for `COC(=O)c1c(NC(=O)c2ccccc2)sc(C(=O)c2ccccc2)c1C`, the EC50 is 5.41 µM.

With `FC(F)(F)c1cc(CCN2C(=S)NC[C@@H]2CC2CCCCC2)cc(C(F)(F)F)c1`, the EC50 was 3.7 µM.

Take `Oc1cc2ccccc2cc1-c1n[nH]c(=S)o1`: the concentration for a half-maximal effect (EC50) is 11.1 µM.

Turning to `Cc1cc(C)c2c(C(C)(C)C)nn(-c3ccccc3)c2n1`, the EC50 was 2.97 µM.

Regarding `C=C(C)CNC(=S)NNC(=O)CCn1c2ccc(Cl)cc2c2cc(Cl)ccc21`, the EC50 was 2.31 µM.

As to `O=C(Nc1nnc(-c2ccncc2)o1)c1ccc(Br)s1`, the EC50 is 3.27 µM.

Take `Cc1cc(Oc2ccc(-c3ccccc3)cc2)nc(N2CCOCC2)n1`: the EC50 was 5.71 µM.

For the compound `O=C(COc1ccc(Cl)cc1)Nc1nnc(-c2ccc3c(c2)CCCC3)o1`, the EC50 is 0.369 µM.

`Cc1c2ccncc2c(C)c2c1[nH]c1ccccc12`: the 50% effective concentration (EC50) is 3.02 µM.

As to `Oc1cc(OCc2ccccc2)ccc1-c1[nH]ncc1-c1ccccc1`, the EC50 was 3.06 µM.

For `CC1=Nc2ccccc2/C1=C/c1sc(=N)n(-c2nccs2)c1O`, the EC50 is 0.452 µM.

Turning to `Clc1cccc(Nc2ncnc3c2cnn3-c2ccccc2)c1`, the EC50 is 4.98 µM.

Consider `CCN(c1ccccc1)S(=O)(=O)c1ccc(C(=O)Nc2nnc(CSC)o2)cc1`, for which the EC50 was 3.7 µM.

On to `COc1ccccc1-c1nnc(NC(=O)CCS(=O)(=O)c2ccccc2)o1`, for which the EC50 was > 15 µM (inactive).

On to `Cc1sc2ncnc(N/N=C/c3ccccc3O)c2c1C`, for which the EC50 is 4.09 µM.

Consider `CCn1c(COc2ccc(C)cc2)nnc1SCc1ccc(C#N)cc1`, for which the EC50 was > 15 µM (inactive).

With `COc1ccc(C2CC(=O)c3cnc(N4CCN(Cc5ccccc5)CC4)nc3C2)cc1` (stereo not drawn), the EC50 was 13.7 µM.

Turning to `CCc1nn(CCCC(=O)NCc2ccccc2Br)c(=O)c2cc3occc3n12`, the EC50 is 2.55 µM.

Consider `O=C(NNC(=S)NC(=O)c1ccccc1)c1ccc([N+](=O)[O-])cc1`, for which the half-maximal effective concentration (EC50) is 3.23 µM.

Take `CCCc1cc(=O)n2[nH]c(C)c(-c3ccc(Cl)cc3)c2n1`: the EC50 was 5.81 µM.

Consider `Fc1ccc(CSc2ncnc3sc4c(c23)CCCC4)cc1`, for which the EC50 was 3.97 µM.

With `N=C1/C(=C/c2cccs2)C(=O)N=C2SN=C(SCc3ccccc3)N12`, the EC50 was 1.83 µM.

With `Cc1cccc(NC(=O)c2nc[nH]c2C(=O)N[C@@H](CCCCNC(=O)OC(C)(C)C)C(=O)OC(C)(C)C)c1`, the EC50 was 2.83 µM.

`Cc1cccc(C(=O)CC(=O)c2cc(Cl)ccc2O)c1`: the EC50 is 1.06 µM.

With `CC(C)(C)c1cc(-c2csc(Nc3ccccc3)[n+]2Cc2ccc(C(=O)O)cc2)cc(C(C)(C)C)c1O`, the EC50 was 2.15 µM.

Consider `C/C(Cl)=C\Cn1c(O)c(N=NC(N)=S)c2cc(Br)ccc21`, for which the EC50 was 1.36 µM.

For the compound `Cc1cccc(-c2nnc(NC(=O)c3ccc(Cl)cc3)o2)c1`, the half-maximal effective concentration (EC50) was 0.097 µM.

For `CC(C)Cn1c(=O)c(C(=O)Nc2ccncc2)c(O)c2ccccc21`, the EC50 was 4.17 µM.

As to `CC(C)(C)c1ccc(C(=O)NC(=S)NNC(=O)COc2ccccc2)cc1`, the EC50 is below 0.06 µM.

Regarding `COc1ccc(Cn2c(C3CCCCC3)nc3c(c(=O)c4ccccc4n3C)c2=O)cc1`, the EC50 is 3.2 µM.

As to `CCCCCCCN1N=C(C)C(C(=O)c2ccccc2)C1=O` (stereo not drawn), the EC50 is 1.33 µM.

Take `Cc1cc(/C=C2\SC(=S)N(C)C2=O)c(C)n1-c1ccc(O)cc1`: the EC50 was 2.09 µM.

Take `CN(C(=O)Cc1c(C(=O)O)n(C)c2ccccc12)c1ccc(F)cc1`: the EC50 was > 15 µM (inactive).

Take `O=C(Nc1ccc(N2CCCC2)c(S(=O)(=O)Nc2cccc(C(F)(F)F)c2)c1)c1cccs1`: the EC50 was 3.95 µM.

As for `CCOC(=O)c1sc(NC(=O)CNCc2ccccn2)c(C(=O)OCC)c1C`, the EC50 is below 0.06 µM.

As to `CCc1ccccc1NC(=O)NC(C)c1ccc2c(c1)OCO2` (stereo not drawn), the EC50 is > 15 µM (inactive).

Take `CCCCCNC(=O)c1ccc2c(=O)[nH]c3c(C(=O)NCC4CCCO4)sc(=S)n3c2c1` (stereo not drawn): the EC50 was 2.17 µM.

Turning to `Cc1ccc(C(=O)NC(=S)NNC(=O)COc2ccccc2C)cc1`, the EC50 was 0.161 µM.

For `O=C(C[n+]1cnn(CC(=O)c2ccc(Cl)cc2Cl)c1)c1ccc([N+](=O)[O-])cc1`, the EC50 is 12.3 µM.

As to `Cc1cccc(NCC(=O)N/N=C\c2cccc(Oc3ccccc3)c2)c1`, the EC50 is 11.9 µM.

For the compound `S=C1NC(C23CC4CC(CC(C4)C2)C3)=CC(c2ccc3c(c2)OCO3)N1` (stereo not drawn), the EC50 was 6.76 µM.

`O=C(NC(Cc1c[nH]c2ccccc12)C(=O)N/N=C/c1cccc2ccccc12)c1cccs1` (stereo not drawn): the EC50 is 5.37 µM.

`O=C(CC1SC(=Nc2ccccc2)N(CCc2c[nH]c3ccccc23)C1=O)Nc1ccccc1F` (stereo not drawn): the EC50 is 7.21 µM.

`CCOC(=O)c1ccc(NC(=O)c2nc(S(=O)(=O)Cc3ccccc3)ncc2Cl)cc1`: the EC50 was 9 µM.

Take `CCc1ccc(/C=C2/SC(=S)N(CC(=O)Nc3nc4ccccc4s3)C2=O)cc1`: the EC50 was 2.52 µM.

For the compound `O=C1c2ccc3c4c(ccc(c24)C(=O)N1c1cccc(O)c1)C(=O)N(c1cccc(O)c1)C3=O`, the EC50 was 1.27 µM.

On to `COC(=O)C1N2C(=O)[C@@H](NC(=O)COc3ccccc3)[C@H]2SC1(C)C` (stereo partly drawn), for which the EC50 is 0.377 µM.

Regarding `Cc1ccc2sc(NNC(=O)c3ccc4c(c3)OCCO4)nc2c1C`, the EC50 was 3.79 µM.

`CC/C(=C(\c1ccccc1)c1ccc(OCCN(C)C)cc1)c1ccccc1`: the concentration giving a half-maximal response (EC50) is 6.17 µM.

Take `Clc1cccc(Cl)c1C1Nc2cccc3cccc(c23)N1`: the EC50 is 8.81 µM.
